The values that follow are results of earlier work, collected in publication PMC7162861, “Synthesis, cytotoxicity, pharmacokinetic profile, binding with DNA and BSA of new imidazo[1,2-a]pyrazine-benzo[d]imidazol-5-yl hybrids” (Scientific Reports, 2020).

Each structure is given as a SMILES string.

The series concerns EtBr-CT-DNA complex. Also noted: method as in printed. The note with it: used in Eq. 4; ref not given; cited from earlier work.

On to `CC[n+]1c(-c2ccccc2)c2cc(N)ccc2c2ccc(N)cc21` [ethidium bromide], for which the “known binding constant KEtBr” value is 1e+07 M⁻¹.
